Values quoted from earlier work, collected in patent publication US20250295106A1, “HERBICIDAL COMPOSITION” (NOURYON CHEMICALS INTERNATIONAL B.V., priority 2024, published 2025).

Conditions: acid form, at 25° C.

## O=C(O)CNCP(=O)(O)O [glyphosate, N-phosphonomethylglycine]
  solubility in water: 1.16 % by weight
